Test results published in US11407729B2, “Quinoline and quinazoline compounds and methods of use thereof” (Stingray Therapeutics, Inc., priority 2019, dated 2022).

Key:
ENPP1 protein [1] = biological target: T1, ENPP1 protein (Homo sapiens, UniProt P22413); assay: Thermal Shift Binding Assay; settings: 1 μg of ENPP1 protein incubated with 100 μM of drug for 5 minutes; for ΔTm at 100 µM: read-out: Thermal Shift (Δ TmD)
T1 sequence (P22413 1-925): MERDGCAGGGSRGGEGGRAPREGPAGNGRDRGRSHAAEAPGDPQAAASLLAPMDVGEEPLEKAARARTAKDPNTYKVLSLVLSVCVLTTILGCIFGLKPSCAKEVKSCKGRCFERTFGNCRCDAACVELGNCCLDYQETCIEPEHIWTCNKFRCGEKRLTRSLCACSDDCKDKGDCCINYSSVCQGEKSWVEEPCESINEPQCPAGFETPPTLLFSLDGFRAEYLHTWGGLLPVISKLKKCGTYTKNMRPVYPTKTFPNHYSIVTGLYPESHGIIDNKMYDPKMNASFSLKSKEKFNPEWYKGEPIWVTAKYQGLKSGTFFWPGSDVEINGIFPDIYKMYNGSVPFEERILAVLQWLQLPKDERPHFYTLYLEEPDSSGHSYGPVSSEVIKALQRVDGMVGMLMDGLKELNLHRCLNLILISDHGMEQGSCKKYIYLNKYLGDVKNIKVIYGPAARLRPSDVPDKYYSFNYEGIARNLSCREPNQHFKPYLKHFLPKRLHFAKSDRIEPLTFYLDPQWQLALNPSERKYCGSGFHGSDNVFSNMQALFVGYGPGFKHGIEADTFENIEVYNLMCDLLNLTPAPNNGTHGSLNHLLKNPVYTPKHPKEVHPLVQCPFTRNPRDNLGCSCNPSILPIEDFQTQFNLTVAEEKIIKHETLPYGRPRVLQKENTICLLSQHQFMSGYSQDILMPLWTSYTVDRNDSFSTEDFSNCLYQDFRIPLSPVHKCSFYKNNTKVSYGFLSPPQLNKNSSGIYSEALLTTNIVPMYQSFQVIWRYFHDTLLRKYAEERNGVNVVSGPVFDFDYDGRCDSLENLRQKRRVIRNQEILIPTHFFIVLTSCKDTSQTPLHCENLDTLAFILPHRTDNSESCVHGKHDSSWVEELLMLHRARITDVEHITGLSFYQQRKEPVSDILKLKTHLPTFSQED
Description: Thermal Shift Binding Assay.
The Thermal Shift Assays were implemented to study thermal stabilization of ENPP1 proteins upon ENPP1 inhibitor or ligand binding. These assays were used extensively on purified ENPP1 protein. In a 384-well plate, 1 μg of ENPP1 protein was incubated with 100 μM of the corresponding drug for 5 minutes. Each well was exposed to increasing temperatures to determine an unfolding temperature of the protein. […] 2′3′ cGAMP was used as a positive control, as it is a substrate of ENPP1.

ENPP1 protein [2] = biological target: T1, ENPP1 protein; assay: ENPP1 Inhibition Assay; type: biochemical; design: purchased R&D 6136-EN-010; settings: substrate Thymidine 5′-monophosphate p-nitrophenol ester; 37° C. for 45 minutes; absorbance at 405 nm
Description: 1. ENPP1 Inhibition Assay
An eight point serial dilution of drugs was prepared in 10× in assay buffer with the final assay concentrations starting at 10 μM, 3 μM, 1 μM, 0.3 μM . . . 0 μM. A dilution of DMSO was included as a control. The assay plate was set up as follows with each well in duplicate: 81 μL assay buffer+10 μL ENPP1 inhibitor or DMSO+5 μL Substrate+4 μL Enzyme. Both the enzyme and substrate were added to opposite sides of the well to ensure that there was no interaction until all wells had both components. The plate was then centrifuged gently for 10 seconds, followed by an incubation at 37° C. for 45 minutes.
IC50 values are determined using GraphPad Prism 5 software. The data were entered as an X-Y plot into the software as percent inhibition for each concentration of the drug. The concentration values of the drug were log transformed and the nonlinear regression was carried out using the “sigmoidal dose-response (variable slope)” option within the GraphPad software to model the data and calculate IC50 values.

ΔTm at 100 µM (ENPP1 protein [1]) [°C]	IC50 (ENPP1 protein [2]) [nM]	Molecule	Thermal Shift (Δ TmD) (ENPP1 protein [1])
3.6	835	COc1cc2nccc(N3CCC(C(C)CNS(N)(=O)=O)CC3)c2cc1N1CCOCC1 (centres unmarked) [Compound I-12]	
4	4.55	CCC(CNS(N)(=O)=O)C1CCN(c2ccnc3cc(OC)c(OC)cc23)CC1 (centres unmarked) [Compound I-13, N-(2-(1-(6,7-dimethoxyquinolin-4-yl)piperidin-4-yl)butyl)sulfuricdiamide]	
	5.95	N-(2-(1-(6,7-dimethoxyquinolin-4-yl)piperidin-4-yl)propyl)sulfamoylcarbamate [Compound I-02]	5.0

Molecule	ΔTm at 100 µM (ENPP1 protein [1]) [°C]	IC50 (ENPP1 protein [2]) [nM]	Thermal Shift (Δ TmD) (ENPP1 protein [1])
N-(2-(1-(6,7-dimethoxyquinazolin-4-yl)piperidin-4-yl)propyl)sulfonamide urea [Compound I-01]		2.79	5.5
